Experimental data taken from patent publication US10301295B2, “Herbicidal compounds” (Syngenta Participations AG, priority 2014, dated 2019).
Like-named read-outs stand apart in the source and are kept apart here.

What was measured:
Experiment in all cases: Glasshouse assay for herbicidal activity, pre-/post-emergence (percentage phytotoxicity)
Type in all cases: in vivo
[1] = tested on: Echinochloa crus-galli (ECHCG); details: Echinochloa crus-galli, Rate 250 g/ha, 100%=total damage, 0%=no damage
Procedure: (§1) Seeds of a variety of monocotyledonous and dicotyledonous test plants are sown in standard soil in pots. The plants are cultivated for one day (for pre-emergence) or for about 12 days (for post-emergence) under controlled conditions in a glasshouse (warm climate species at 24/18° C., cool climate species at 20/16° C., both at day/night; 16 hours light; 65% humidity). The test plants are then grown on, in a glasshouse (greenhouse) under controlled conditions (warm climate species at 24/18° C., cool climate species at 20/16° C., both at day/night; 16 hours light; 65% humidity) and are watered twice daily. 15 days after application of the test herbicide (15DAA) (for post-emergence), and 20 days after application of the test herbicide (20DAA) (for pre-emergence), the test plants are evaluated visually, and an assessed percentage phytotoxicity score is given for each herbicidal application on each plant species (with 100%=total damage to plant; 0%=no damage to plant). The plant species tested are as follows: Alopecurus myosuroides (ALOMY), Avena fatua (AVEFA), Lolium perenne (LOLPE), Echinochloa crus-galli (ECHCG).

Lolium perenne (LOLPE) = details: Lolium perenne, Rate 250 g/ha, 100%=total damage, 0%=no damage
Procedure: as §1

[2] = tested on: Alopecurus myosuroides (ALOMY); details: Alopecurus myosuroides, Rate 250 g/ha, 100%=total damage, 0%=no damage
Procedure: as §1

Avena fatua (AVEFA) = details: Avena fatua, Rate 250 g/ha, 100%=total damage, 0%=no damage
Procedure: as §1

[3] = post-emergence, 360 h, post-emergence, visual assessment 15 DAA, read-out: Post-emergence herbicidal activity (percentage phytotoxicity), ECHCG POST
[4] = pre-emergence, 480 h, pre-emergence, visual assessment 20 DAA, read-out: Pre-emergence herbicidal activity (percentage phytotoxicity), ECHCG PRE
[5] = post-emergence, 360 h, post-emergence, visual assessment 15 DAA, read-out: Post-emergence herbicidal activity (percentage phytotoxicity), LOLPE POST
[6] = pre-emergence, 480 h, pre-emergence, visual assessment 20 DAA, read-out: Pre-emergence herbicidal activity (percentage phytotoxicity), LOLPE PRE
[7] = 360 h, post-emergence, visual assessment 15 DAA, read-out: Post-emergence herbicidal activity (percentage phytotoxicity), ALOMY POST
[8] = 480 h, pre-emergence, visual assessment 20 DAA, read-out: Pre-emergence herbicidal activity (percentage phytotoxicity), ALOMY PRE
[9] = post-emergence, 360 h, post-emergence, visual assessment 15 DAA, read-out: Post-emergence herbicidal activity (percentage phytotoxicity), AVEFA POST
[10] = pre-emergence, 480 h, pre-emergence, visual assessment 20 DAA, read-out: Pre-emergence herbicidal activity (percentage phytotoxicity), AVEFA PRE

| Structure (SMILES) | pest or weed control at 250 g/ha [1, 3] [%] | pest or weed control at 250 g/ha [1, 4] [%] | pest or weed control at 250 g/ha (Lolium perenne (LOLPE); [5]) [%] | pest or weed control at 250 g/ha (Lolium perenne (LOLPE); [6]) [%] | pest or weed control at 250 g/ha [2, 7] [%] | pest or weed control at 250 g/ha [2, 8] [%] | pest or weed control at 250 g/ha (Avena fatua (AVEFA); [9]) [%] | pest or weed control at 250 g/ha (Avena fatua (AVEFA); [10]) [%] |
| --- | --- | --- | --- | --- | --- | --- | --- | --- |
| Cc1cc(-c2ncc(F)cc2F)cc(C)c1C1C(=O)CC(CCNC(=O)C2=NOC(C)(C)C2)C1=O (stereo not shown) [Compound A111] | 100 | 90 | 40 | 90 | 100 | 100 | 100 | 100 |
| Cc1cc(-c2ccc(F)cc2)cc(C)c1C1C(=O)CC(CCNC(=O)C2=NOC(C)(C)C2)C1=O (stereo not shown) [Compound A109] | 100 | 90 | 100 | 90 | 100 | 90 | 100 | 90 |
| Cc1cc(C)c(C2C(=O)CC(CCNC(=O)Nc3ccncn3)C2=O)c(C)c1 (stereo not shown) [Compound A95] | 70 | 70 | 60 | 70 | 70 | 80 | 70 | 20 |
| CC#Cc1cc(C)c(C2C(=O)CC(CCNc3ccc(C(F)(F)F)cn3)C2=O)c(C)c1 (stereo not shown) [Compound A113] | 100 | 90 | 100 | 90 | 100 | 90 | 100 | 70 |
| C#Cc1cc(C)cc(C)c1C1C(=O)CC(CCNC(=O)C2=NOC(C)(C)C2)C1=O (stereo not shown) [Compound A123, N-[2-[3-(2-ethynyl-4,6-dimethyl-phenyl)-2,4-dioxo-cyclopentyl]ethyl]-5,5-dimethyl-4H-isoxazole-3-carboxamide] | 100 | 20 | 80 | 90 | 100 | 70 | 100 | 50 |
| Cc1cc(C)c(C2C(=O)CC(CCNc3ncc(Br)cn3)C2=O)c(C)c1 (stereo not shown) [Compound A126, 4-[2-[(5-bromopyrimidin-2-yl)amino]ethyl]-2-(2,4,6-trimethylphenyl)cyclopentane-1,3-dione] | 90 | 80 | 90 | 90 | 90 | 80 | 90 | 100 |
| Cc1cc(-c2ncc(C#N)cn2)cc(C)c1C1C(=O)CC(CCNC(=O)C2=NOC(C)(C)C2)C1=O (stereo not shown) [Compound A114] | 100 | 70 | 100 | 70 | 90 | 90 | 100 | 80 |
| Cc1cc(-c2ncc(F)cn2)cc(C)c1C1C(=O)CC(CCNc2ccc(C(F)(F)F)cn2)C1=O (stereo not shown) [Compound A120] | 100 | 90 | 90 | 90 | 90 | 90 | 100 | 90 |
